The source of these data is patent US20240182945A1, “PRODUCTS FOR REGULATION OF EUKARYOTIC AND MICROBIAL CELLS GROWTH” (priority 2021, published 2024).

The subject of the assay is C. albicans, non-albicans Candida spp. Aspergillus spp. in oral swabs from patients with oral candidiasis. The assay can be described thus: Signs of fungal growth on 12 well plate test system supplemented with antifungal antibiotics. The class given is cell-based. Particulars: naked eye examination, samples resistant to the antibiotic. The procedure:
Oral swabs (n=6) from patients with confirmed oral candidiasis caused by C. albicans, non-albicans Candida spp. Aspergillus spp., were dissolved with PBS and 0.1 uL were plated on 12 well plate test system filled with Mixed Medium 1 (see above), Mixed Medium 2 (Sabouraud agar+Potato Dextrose Agar+vitamins B12+B7) (MM2), Sabouraud agar (SA), Potato Dextrose Agar (PDA), Sabouraud's Heart Infusion (SABHI) agar. 11 wells were filled with media supplemented with antibiotics (taken at mean concentration of each antibiotic achieved in lungs at different timpoints post drug administration)—Nystatin, Amphotericin B, Clotrimazole, Fluconazole, Isavuconazole, Terbinafin, Posaconazole, Voriconazole, Anidulafungin, Caspofungin, Micafungin. One well was antibiotic free.
Plates was incubated at 30 C and the analysis of the presence/absence of microbial growth was monitored every 15 minutes from […] to 5 h, then hourly from 5 h to 8 h and then at 18 and 24 h post plating with a naked eye.
Three methods (algorithms) how to analyze fungal growth were used.
Method (Algorithm) #1. Lab technician, analyzed the appearance of fungal growth by comparing the signs of fungal growth in each well supplemented with antibiotic(s) at certain timepoint, with the signs of funal growth in the same well at previous time point(s).
Method (Algorithm)#2. Lab technician analyzed the appearance of fungal growth by comparing the signs of fungal growth in each well supplemented with antibiotic(s) with fungal growth in antibiotic-free control
Method (Algorithm) #3. Lab technician analyzed the absence of fungal growth in the wells in fixed time period of 3.5 h; 5 h and 24 h.

The mark [1] stands for this setting: Method (Algorithm) #1, MM1 medium.
Setting [2] is: Method (Algorithm) #1, MM2 medium.
Setting [3] is: Method (Algorithm) #1, PDA medium.
Setting [4] is: Method (Algorithm) #1, SA (Sabouraud agar).
The mark [5] stands for this setting: Method (Algorithm) #1, SABHI medium.
Setting [6] is: Method (Algorithm) #2, MM1 medium.
Setting [7] is: Method (Algorithm) #2, MM2 medium.
Setting [8] is: Method (Algorithm) #2, PDA medium.
[9] abbreviates: Method (Algorithm) #2, SA (Sabouraud agar).
Setting [10] is: Method (Algorithm) #2, SABHI medium.

Starred links: 1 amine or outer side, 2 acyl side, 3 side chain; linkers in the order of their positions; H or OH if unused. Positions of bridges follow the written chain, without caps; N, C: chain ends. Non-standard residues stand in square brackets, D forms with d. Residues, ends and D or L forms follow the SMILES beside them. *: point of attachment. hTyr(3S-OH,4S-OH,3'-OSO3H) = N[C@H](C(=O)O)[C@H](O)[C@@H](O)c1ccc(O)c(OS(=O)(=O)O)c1; Orn(4R-OH,5R-OH) = O=C([C@H](C[C@@H](O)[C@@H](O)N[*:3])N[*:1])[*:2]; Pro(3S-OH,4S-Me) = C[C@H]1CN[C@H](C(=O)O)[C@H]1O; X1 = CCCCCOc1ccc(-c2cc(-c3ccc(C(=O)*)cc3)no2)cc1; Gln(3R-OH) = NC(=O)C[C@@H](O)[C@H](N)C(=O)O; Hyp = O=C(O)[C@@H]1C[C@@H](O)CN1

With `Clc1ccccc1C(c1ccccc1)(c1ccccc1)n1ccnc1` [Clotrimazole], the “Mean hour at which fungal growth became visible on the wells supplemented with a certain antibiotic” value (from here on “Mean hour”) runs as follows: under setting [1], 3.5 h; under setting [2], 4.5 h; under setting [3], 7.5 h; under setting [4], 5 h; under setting [5], 6.5 h; under setting [6], 4.5 h. Moreover, the “Mean hour” value under setting [7] was 6.5 h, the “Mean hour” value under setting [8] was 8.5 h, the “Mean hour” value under setting [9] was found to be 7.5 h and the “Mean hour” value under setting [10] came out at 6.5 h.

Regarding `C[C@@H](c1ncncc1F)[C@](O)(Cn1cncn1)c1ccc(F)cc1F` [Voriconazole], the “Mean hour” value runs as follows: under setting [1], 4 h; under setting [2], 4.5 h; under setting [3], 5.5 h; under setting [4], 4.5 h; under setting [5], 5.5 h; under setting [6], 4.5 h. Also, the “Mean hour” value under setting [7] stood at 4.5 h, the “Mean hour” value under setting [8] was determined as 6.5 h, the “Mean hour” value under setting [9] amounted to 8 h and the “Mean hour” value under setting [10] was found to be 7 h.

As to `CN(C/C=C/C#CC(C)(C)C)Cc1cccc2ccccc12` [Terbinafin], the “Mean hour” value under setting [1] was determined as 4.5 h; the “Mean hour” value under setting [2] was 5 h; the “Mean hour” value under setting [3] turned out to be 5 h; the “Mean hour” value under setting [4] was 5 h; the “Mean hour” value under setting [5] stood at 5 h; the “Mean hour” value under setting [6] came out at 4.5 h. In addition, the “Mean hour” value turned out to be 5.5 h under setting [7], 8 h under setting [8], 6.5 h under setting [9] and 6.5 h under setting [10].

In the case of `CC[C@H](C)C[C@H](C)CCCCCCCCC(=O)N[C@H]1C[C@@H](O)[C@@H](NCCN)NC(=O)[C@@H]2[C@@H](O)CCN2C(=O)[C@H]([C@H](O)CCN)NC(=O)[C@H]([C@H](O)[C@@H](O)c2ccc(O)cc2)NC(=O)[C@@H]2C[C@@H](O)CN2C(=O)[C@H]([C@@H](C)O)NC1=O` [Caspofungin], the “Mean hour” value runs as follows: under setting [1], 3.5 h; under setting [2], 5 h; under setting [3], 6 h; under setting [4], 5.5 h; under setting [5], 7 h; under setting [6], 6 h. For the same compound, the “Mean hour” value under setting [7] was determined as 5.5 h, the “Mean hour” value under setting [8] worked out at 8 h, the “Mean hour” value under setting [9] worked out at 7.5 h and the “Mean hour” value under setting [10] was found to be 8.5 h.

As for `C[C@@H]1[C@H](O)[C@@H](C)/C=C/C=C/CC/C=C/C=C/C=C/C=C/C(O[C@H]2O[C@H](C)[C@@H](O)[C@H](N)[C@@H]2O)CC2O[C@](O)(CC(O)C(O)CCC(O)CC(O)CC(O)CC(=O)O[C@H]1C)CC(O)C2C(=O)O` (stereo partly shown) [Nystatin], the “Mean hour” value reads like this: under setting [1], 4 h; under setting [2], 4.5 h; under setting [3], 5 h; under setting [4], 6 h; under setting [5], 5.5 h; under setting [6], 4.5 h. Also, the “Mean hour” value came to 6 h under setting [7], 6.5 h under setting [8], 6 h under setting [9] and 7.5 h under setting [10].

For the compound `OC(Cn1cncn1)(Cn1cncn1)c1ccc(F)cc1F` [Fluconazole], the “Mean hour” value was found to be 4 h under setting [1]; 4.5 h under setting [2]; 5 h under setting [3]; 6.5 h under setting [4]; 7.5 h under setting [5]; 5.5 h under setting [6]. In addition, the “Mean hour” value reads like this: under setting [7], 5.5 h; under setting [8], 6.5 h; under setting [9], 7 h; under setting [10], 8 h.

As for `CCCCCOc1ccc(-c2cc(-c3ccc(C(=O)N[C@H]4C[C@@H](O)[C@@H](O)NC(=O)[C@@H]5[C@@H](O)[C@@H](C)CN5C(=O)[C@H]([C@H](O)CC(N)=O)NC(=O)[C@H]([C@H](O)[C@@H](O)c5ccc(O)c(OS(=O)(=O)O)c5)NC(=O)[C@@H]5C[C@@H](O)CN5C(=O)[C@H]([C@@H](C)O)NC4=O)cc3)no2)cc1` [Micafungin] (X1-[Orn(4R-OH,5R-OH)]T[Hyp][hTyr(3S-OH,4S-OH,3'-OSO3H)][Gln(3R-OH)][Pro(3S-OH,4S-Me)]; lactam 1-C), the “Mean hour” value under setting [1] is 4.5 h; the “Mean hour” value under setting [2] came out at 5 h; the “Mean hour” value under setting [3] amounted to 6 h; the “Mean hour” value under setting [4] was found to be 6 h; the “Mean hour” value under setting [5] came to 5 h; the “Mean hour” value under setting [6] is 4.5 h. For the same compound, the “Mean hour” value is 5.5 h under setting [7], 7.5 h under setting [8], 8 h under setting [9] and 6.5 h under setting [10].
